# Measured values reported in US20200239398A1, “METHYLENE-CYCLOALKYLACETATE DERIVATIVES AND THEIR USE IN TREATMENT OF NEUROTROPIC CONDITIONS” (Yissum Research Development Company of The Hebrew …, priority 2018, published 2020).
# Where two headings read alike, the source gives them in different places.
# What was measured:
# PC12 cells = assay: Cytotoxicity (cell morphology, LDH release); type: cell-based; conditions: 10 μM
# [1] = Acute tolerance in mice, single iv dose; type: in vivo; conditions: C57BL/6, mouse, in vivo; male mice; predicted from the 250 mg/kg iv study; read-out: LD50 after single dose
# Experimental: (§1) This pilot study was conducted to obtain acute information of the dose toxicity of HU-MCA-13 (Compound 13 in Scheme 1) in male mice. Male C57BL/6 mice, were injected intravenously with 0.2 ml of HU-MCA-13 in a dose of 250 mg/kg. Mice were monitored for 4 consecutive weeks for autonomic and neurotoxicity symptoms. The mortality and changes on body weight, clinical signs, gross observation, were monitored up to 30 days after treatment. No mortality was found at this high dose of 250 mg/kg. […] The mice were examined once a week for autonomic symptoms by measuring salivation, urinary delivery, pupillary constriction, heart rate, blood pressure, and hair contraction. […] Occurrences of either flaccid or spastic paralysis of the legs were not observed. […] Furthermore, no mice sudden deaths occurred within 24 hours after the injection or during the 4 weeks of observation. […] Sensory motor tests were scored individually and according to the modified neurologic function severity score (mNSS). The data from each individual test and the total score calculated from individual tests that make up the mNSS were measured. The following assays were used: a. beam balance test—mice were placed on a 1-inch wide beam for 60 seconds. A normal response is balance with steady posture for 60 seconds (a score of 0). Deficits are scored if the rat: grasps the side of the beam (a score of 1), hugs the beam and one limb falls down from the beam (a score of 2), hugs the beam and two limbs fall off the beam (a score of 3), attempts to balance on the beam, but falls off from 60 seconds (a score of 4), attempts to balance on the beam but falls off from […], or falls off with no attempt to balance or hang on the beam in <20 seconds (a score of 6); b. foot fault test—forelimb movement dysfunction, while walking on elevated metal grids, was monitored. The animal was placed on horizontal grids (85.5×26.5×20) cm with a glass enclosure for observation. With each weight bearing step, the forelimb can fall or slip between the metal support bars, an event recorded as a foot fault. The total number of forelimb steps and the total number of foot faults were recorded. The percentage of forelimb foot faults to the total steps that occurred within 2 minutes marks the test results; c. hind limb placing test—This test monitors reposition of hind limbs placed down and away from the table edge. The ability to retrieve and place the hind limbs back onto the table was scored. Immediate and complete limb retrieval was scored 0, delayed (>2 seconds) limb retrieval and/or interspersed flailing was scored 1, and no limb retrieval was scored 2; d. Increasing platform angle to slide test—This test monitors the strength and stability of resistance to slide down an inclined platform. It deploys a clean wooden board (60 cm by 40 cm) positioned horizontally. Mice were placed on the board with head facing up the increasing incline. The board then swings to increase the degree of inclination the rat experiences until slipping down the board feet first. The degree of the angle at which the rat relinquishes their grip/stance on the board (slips down) constitute the test results; e. the forelimb whole body suspension test—The test measures grip strength by duration of suspension by forepaws. The rat is suspended on a metal bar (diameter 5 mm) which it tightly holds onto by its forelimbs. The time (seconds) during which each rat could sustain its body weight while holding onto the bar is recorded. The mice drop from the bar onto soft material with no harm. The test was repeated three times and a mean result per rat was used as the score. Cumulatively these sensory motor/neurological findings indicate acute tolerability of 250 mg/kg HU-MCA-13 iv injection in Male C57BL/6 mice.
# male C57BL/6 mice = assay: Acute tolerance in mice, single iv dose; type: in vivo
# Experimental: as §1
# [2] = target: T1, Adrenergic Receptor α2A (ADRA2A) (Homo sapiens, UniProt P08913); assay: SAFETYscan ADRA2A cAMP; type: cell-based; conditions: 10 μM HU-MCA-13
# T1 sequence (P08913 1-465): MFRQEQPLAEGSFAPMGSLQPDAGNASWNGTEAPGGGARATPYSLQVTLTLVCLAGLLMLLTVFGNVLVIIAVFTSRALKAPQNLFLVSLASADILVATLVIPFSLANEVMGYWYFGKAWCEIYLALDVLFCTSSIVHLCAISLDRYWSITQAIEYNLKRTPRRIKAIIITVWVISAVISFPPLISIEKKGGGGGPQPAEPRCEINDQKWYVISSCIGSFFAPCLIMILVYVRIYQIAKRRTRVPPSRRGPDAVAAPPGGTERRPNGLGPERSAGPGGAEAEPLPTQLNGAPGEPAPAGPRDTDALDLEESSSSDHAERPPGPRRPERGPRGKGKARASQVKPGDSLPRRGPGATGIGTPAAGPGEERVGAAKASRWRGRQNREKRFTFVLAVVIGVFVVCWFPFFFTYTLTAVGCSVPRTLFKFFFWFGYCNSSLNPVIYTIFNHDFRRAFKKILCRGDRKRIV
# [3] = target: Muscarinic acetylcholine Receptor M1 (CHRM1) (Homo sapiens, UniProt P11229); assay: cell-based; conditions: 10 μM HU-MCA-13, read-out: Maximal Response
# [4] = target: T2, 5-Hydroxytryptamine (Serotonin) Receptor 3A (HTR3A) (Homo sapiens, UniProt P46098); assay: SAFETYscan HTR3A Ion channel; type: cell-based; conditions: 10 μM HU-MCA-13, read-out: Maximal Response
# T2 construct: DiscoverX (SAFETYscan contract panel)
# [5] = target: T3, A tetrodotoxin-resistant voltage-gated sodium channel (NAVI1.5) (Homo sapiens, UniProt Q14524); assay: cell-based; conditions: read-out: Maximal Response
# T3 construct: DiscoverX (SAFETYscan contract panel)
# [6] = target: T4, Nuclear Hormone Androgen Receptor (AR) (Homo sapiens, UniProt P10275); assay: SAFETYscan AR Nuclear Hormone Receptor Translocation; type: cell-based; conditions: 10 μM HU-MCA-13
# T4 construct: DiscoverX (SAFETYscan contract panel)
# [7] = target: T5, Dopamine transporter (DAT) (Homo sapiens, UniProt Q01959); assay: SAFETYscan DAT Transporter; type: cell-based; conditions: Blocker mode; 10 μM HU-MCA-13; read-out: Maximal Response
# T5 construct: DiscoverX (SAFETYscan contract panel)
# [8] = 250 mg/kg iv, same for 1% DMSO group
# [9] = Antagonist mode, read-out: Maximal Response
# [10] = read-out: Maximal Response, Agonist mode
# T4 sequence (P10275 whole entry): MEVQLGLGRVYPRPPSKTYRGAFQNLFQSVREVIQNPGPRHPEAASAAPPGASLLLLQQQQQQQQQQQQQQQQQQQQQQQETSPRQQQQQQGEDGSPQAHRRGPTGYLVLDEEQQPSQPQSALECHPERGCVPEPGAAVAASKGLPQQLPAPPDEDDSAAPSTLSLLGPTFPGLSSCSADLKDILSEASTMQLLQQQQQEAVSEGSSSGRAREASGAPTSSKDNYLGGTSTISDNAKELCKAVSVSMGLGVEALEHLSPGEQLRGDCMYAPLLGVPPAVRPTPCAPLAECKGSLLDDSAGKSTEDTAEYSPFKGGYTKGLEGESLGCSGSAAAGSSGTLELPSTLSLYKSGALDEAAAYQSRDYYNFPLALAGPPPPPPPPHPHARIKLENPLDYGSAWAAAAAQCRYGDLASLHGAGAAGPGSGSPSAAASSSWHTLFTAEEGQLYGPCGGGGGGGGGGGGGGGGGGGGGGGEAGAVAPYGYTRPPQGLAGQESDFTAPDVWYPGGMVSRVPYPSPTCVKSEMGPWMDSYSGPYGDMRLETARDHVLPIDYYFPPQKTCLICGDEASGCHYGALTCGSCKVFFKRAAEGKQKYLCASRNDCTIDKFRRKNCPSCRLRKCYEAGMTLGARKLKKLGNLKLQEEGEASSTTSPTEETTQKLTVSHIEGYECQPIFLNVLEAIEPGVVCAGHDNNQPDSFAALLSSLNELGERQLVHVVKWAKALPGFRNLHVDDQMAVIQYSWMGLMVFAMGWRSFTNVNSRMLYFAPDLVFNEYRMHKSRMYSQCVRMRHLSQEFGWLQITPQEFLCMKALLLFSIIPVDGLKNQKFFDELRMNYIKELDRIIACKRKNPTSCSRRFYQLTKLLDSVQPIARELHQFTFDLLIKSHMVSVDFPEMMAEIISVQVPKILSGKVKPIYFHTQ
# Chain of Muscarinic acetylcholine Receptor M1 (CHRM1) (P11229 whole entry): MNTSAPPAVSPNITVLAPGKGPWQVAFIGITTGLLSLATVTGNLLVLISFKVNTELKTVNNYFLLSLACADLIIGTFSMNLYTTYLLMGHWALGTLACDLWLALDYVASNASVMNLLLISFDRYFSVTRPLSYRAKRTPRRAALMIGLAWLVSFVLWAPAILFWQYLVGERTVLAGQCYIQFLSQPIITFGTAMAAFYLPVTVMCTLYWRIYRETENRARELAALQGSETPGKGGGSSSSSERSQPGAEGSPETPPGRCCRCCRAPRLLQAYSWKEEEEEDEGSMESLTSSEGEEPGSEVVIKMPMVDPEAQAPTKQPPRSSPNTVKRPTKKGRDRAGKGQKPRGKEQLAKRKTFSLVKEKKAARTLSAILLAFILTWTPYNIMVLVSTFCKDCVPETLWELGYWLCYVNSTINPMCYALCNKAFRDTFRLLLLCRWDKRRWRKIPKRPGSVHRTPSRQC
# T2 sequence (P46098 24-478): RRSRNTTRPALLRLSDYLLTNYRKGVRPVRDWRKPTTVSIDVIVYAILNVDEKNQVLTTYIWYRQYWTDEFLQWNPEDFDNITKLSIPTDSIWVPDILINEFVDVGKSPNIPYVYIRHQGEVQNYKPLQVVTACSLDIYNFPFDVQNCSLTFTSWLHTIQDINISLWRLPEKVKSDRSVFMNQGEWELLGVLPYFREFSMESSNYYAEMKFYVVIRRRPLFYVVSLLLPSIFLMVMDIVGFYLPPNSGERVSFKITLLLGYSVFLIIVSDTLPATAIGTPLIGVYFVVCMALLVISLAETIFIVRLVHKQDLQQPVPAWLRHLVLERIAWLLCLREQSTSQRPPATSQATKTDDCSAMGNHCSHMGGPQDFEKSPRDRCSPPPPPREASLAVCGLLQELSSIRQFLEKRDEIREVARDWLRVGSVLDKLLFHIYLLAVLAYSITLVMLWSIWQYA
# T5 sequence (Q01959 whole entry): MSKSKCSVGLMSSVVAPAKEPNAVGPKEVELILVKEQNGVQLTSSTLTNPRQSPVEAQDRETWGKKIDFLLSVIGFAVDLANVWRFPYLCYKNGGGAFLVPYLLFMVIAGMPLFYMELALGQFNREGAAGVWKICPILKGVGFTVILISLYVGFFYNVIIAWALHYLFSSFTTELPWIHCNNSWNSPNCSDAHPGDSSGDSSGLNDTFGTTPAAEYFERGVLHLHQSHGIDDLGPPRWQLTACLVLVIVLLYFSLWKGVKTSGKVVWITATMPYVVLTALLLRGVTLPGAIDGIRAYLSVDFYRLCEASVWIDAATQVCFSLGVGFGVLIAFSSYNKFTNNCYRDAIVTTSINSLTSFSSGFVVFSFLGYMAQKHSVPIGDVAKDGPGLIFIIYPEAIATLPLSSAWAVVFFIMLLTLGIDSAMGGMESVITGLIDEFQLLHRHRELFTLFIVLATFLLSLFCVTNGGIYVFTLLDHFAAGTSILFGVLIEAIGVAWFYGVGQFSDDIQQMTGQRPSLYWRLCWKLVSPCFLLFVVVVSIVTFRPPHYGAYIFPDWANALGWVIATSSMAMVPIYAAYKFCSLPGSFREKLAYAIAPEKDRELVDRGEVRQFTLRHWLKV
smiles,measurement,setting,value
C=CCC1CCC[C@@H](CCC(=O)O)C1=C (some centres unmarked) [Compound 13],cytotoxicity (in words),PC12 cells,not toxic to neurons
same,LD50 at 30 days,[1],> 2000 mg/kg
same,"neurotoxicity signs (paralysis, motor activity, behavior)",male C57BL/6 mice; 250 mg/kg iv,"No paralysis, altered motor activity, or irregular behavior was observed"
same,mortality,"male C57BL/6 mice; 250 mg/kg iv single dose, up to 30 days",No mortality
same,"autonomic symptoms (salivation, urinary delivery, pupillary constriction, heart rate, blood pressure, hair contraction)",male C57BL/6 mice; 250 mg/kg iv vs 1% DMSO,no differences were observed
same,changes on body weight,male C57BL/6 mice; 250 mg/kg iv vs 1% DMSO treated group,No significant changes
same,body weight at end,male C57BL/6 mice; [8],27 gram
same,body weight at start,male C57BL/6 mice; [8],21 gram
same,cutaneous hematomas around the injection site or at distant locations,"male C57BL/6 mice; within 24 hours after injection, 250 mg/kg iv",have not been observed
same,Maximal Response,[2]; Agonist mode,24.55%
same,Emax,[2]; [9],0%
same,Emax,[2]; [10],24.5%
same,Emax,[3]; Agonist mode,0%
same,Emax,[3]; Antagonist mode,7.43%
same,Emax,[4]; Blocker mode,0.19%
same,Emax,[4]; Opener mode,0%
same,Emax,[5],0%
same,Emax,[6]; [9],5.27%
same,Emax,[6]; [10],0%
same,Emax,[7],0%
